Results reported in ChEMBL document CHEMBL1770094, “Design, synthesis and antiproliferative activity of novel aminosubstituted benzothiopyranoisoindoles” (Bioorg Med Chem Lett, 2011).

How the values were obtained:
[1] = Cytotoxicity against human MES-SA cells assessed as inhibition of cell proliferation after 72 hrs by MTT assay; assay type: functional, cell-based
MES-SA = assay: Resistant factor, ratio of IC50 for doxorubicin-resistant human MES-SA/Dx5 cells to IC50 for doxorubicin-sensitive human MES-SA cells; assay type: functional
[2] = Cytotoxicity against human MES-SA/Dx5 cells assessed as inhibition of cell proliferation after 72 hrs by MTT assay; assay type: functional, cell-based; conditions: MES-SA/Dx5, 72 h
HCT-116 = assay: Cytotoxicity against human HCT116 cells assessed as inhibition of cell proliferation after 72 hrs by MTT assay; assay type: functional, cell-based; conditions: HCT-116, 72 h

| Compound | IC50 [1] | Ratio IC50 (MES-SA) | IC50 [2] | IC50 (HCT-116) |
| --- | --- | --- | --- | --- |
| O=C1c2c(O)ccc(O)c2C(=O)c2c(NCCNCCO)ccc(NCCNCCO)c21 [MITOXANTRONE] | 12 nM | 6.67 | 80 nM | 22 nM |
| O=[N+]([O-])c1ccc2c3c(n(CCN4CCCC4)cc13)-c1ccccc1S2 | 1720 nM | 1.25 | 2150 nM | 1150 nM |
| CCN(CC)CCn1cc2c([N+](=O)[O-])ccc3c2c1-c1ccccc1S3 | 1930 nM | 2.63 | 5080 nM | 2140 nM |
| COc1cccc2c1C(=O)c1c(O)c3c(c(O)c1C2=O)C[C@@](O)(C(=O)CO)C[C@@H]3O[C@H]1C[C@H](N)[C@H](O)[C@H](C)O1 [DOXORUBICIN] | 30 nM | 79.93 | 2400 nM | 160 nM |
| O=[N+]([O-])c1ccc2c3c(n(CCN4CCCC4)cc13)-c1ccccc1S2(=O)=O | 2300 nM | 0.63 | 1450 nM | 7040 nM |
| CN(C)CCn1cc2c([N+](=O)[O-])ccc3c2c1-c1ccccc1S3(=O)=O | 3520 nM | 1.47 | 5180 nM | 5420 nM |
| CCN(CC)CCNc1ccc2c3c(n(CCN(CC)CC)cc13)-c1ccccc1S2(=O)=O | 68200 nM |  | > 100000 nM | 60400 nM |
| O=[N+]([O-])c1ccc2c3c(n(CCN4CCCCC4)cc13)-c1ccccc1S2(=O)=O | 3980 nM | 0.64 | 2550 nM | 5470 nM |
| CN(C)CCn1cc2c([N+](=O)[O-])ccc3c2c1-c1ccccc1S3 | 4440 nM | 0.38 | 1700 nM | 2100 nM |
| CCN(CC)CCn1cc2c([N+](=O)[O-])ccc3c2c1-c1ccccc1S3(=O)=O | 3980 nM | 0.66 | 2610 nM | 6020 nM |
| O=[N+]([O-])c1ccc2c3c(n(CCN4CCCCC4)cc13)-c1ccccc1S2 | 16700 nM | 0.55 | 9160 nM | 8090 nM |
